Results reported in article PMC7665585, “Antidepressive effect of an inward rectifier K^+ channel blocker peptide, tertiapin-RQ” (PLoS ONE, 2020).
Bridge positions count the residues as written; N and C are the ends. Peptide text beside a SMILES is read from it.

Biological target: T1, rat ROMK (Rattus norvegicus, UniProt P35560)
T1 construct: expressed in transfected cells; host or cells: 293T cell line 208-4 (lentiviral transduction, GFP coexpressed)
T1 sequence (P35560 1-391): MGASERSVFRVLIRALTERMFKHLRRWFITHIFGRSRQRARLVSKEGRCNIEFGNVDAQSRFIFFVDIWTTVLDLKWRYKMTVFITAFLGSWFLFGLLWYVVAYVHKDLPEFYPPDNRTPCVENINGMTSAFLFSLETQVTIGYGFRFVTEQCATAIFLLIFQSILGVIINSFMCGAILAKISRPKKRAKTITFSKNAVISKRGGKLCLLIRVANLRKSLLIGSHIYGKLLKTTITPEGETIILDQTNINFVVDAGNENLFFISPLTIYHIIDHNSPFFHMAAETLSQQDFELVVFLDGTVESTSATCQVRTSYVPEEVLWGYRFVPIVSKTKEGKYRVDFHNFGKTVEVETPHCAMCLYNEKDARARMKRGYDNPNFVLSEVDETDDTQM
Assay: Whole-cell patch-clamp of ROMK currents in 208–4 cells
Type: cell-based
Conditions: blockade at 1 μM estimated from fitted Hill curve (four parameters), whole-cell conductance, n = 3–6, read-out: Activity (ROMK channel blocking activity, percentage of blockade at 1 μM)
Excerpt: The cDNAs for rat ROMK and mouse GIRK1, 2, and 4 were generously donated by Drs Mikio Hayashi (Kansai Medical University) and David Weaver (Vanderbilt University). The ROMK channels were stably expressed by a cell line, 208–4, which was transduced with lentiviral vectors coexpressing the channel and green fluorescent protein (GFP) as described previously. The GIRK genes, cloned in a pCMV6 plasmid (Origene Technologies Inc, Rockville, MD), were transiently expressed in 293T cells with calcium phosphate transfection. GIRK channel currents were recorded 24 h after transfection.
Cells grown on small cover glasses (3 × 18 mm) were placed in a recording chamber. Whole-cell currents were recorded in Tyrode solution using an Axopatch 200B amplifier (Axon Instruments, Foster City, CA) at 25°C. Tyrode solution contained (in mM): NaCl 140, KCl 5.4, NaH2PO4 0.33, CaCl2 2, MgCl2 1, HEPES 5, and glucose 5.5 (pH 7.4 adjusted with NaOH). High K^+ Tyrode solution (KCL 50 mM, NaCl 95 mM, and others were the same as standard Tyrode solution) was used for the recording of GIRK channels. Patch pipettes pulled from borosilicate glass (Narishige, Tokyo, Japan) were filled with an internal solution containing (in mM): K-aspartate 66, KCl 71.5, KH2PO4 1, EGTA 5, HEPES 5, and MgATP 3 (pH 7.4 adjusted with KOH). Recordings were digitized at 10 kHz, and low-pass filtered at 2 kHz. ROMK, Kir2.1, and GIRK currents were evoked with step pulses of 400 msec from -150 mV to 10 mV in 10 mV increments from a holding potential of -70 mV. Whole-cell currents were recorded 60 sec after the peptide application and those from 100 to 300 msec of the step pulses were averaged. Liquid junction potential or capacitive transient was not corrected or compensated. Whole-cell conductance was calculated as the slope of the current-voltage (I-V) relationship from -140 mV to -100 mV and normalized to the initial value (0 μM TPN), in which BaCl2-resistant current was subtracted and indicted as a percentage.

First: CC[C@H](C)[C@@H]1NC(=O)[C@H](C)NC(=O)[C@H](C)NC(=O)[C@H](CC(N)=O)NC(=O)[C@@H]2CSSC[C@@H](C(=O)NCC(=O)N[C@@H](CCCCN)C(=O)N[C@@H](CCCCN)C(N)=O)NC(=O)[C@H](CCCCN)NC(=O)[C@H](CCCCN)NC(=O)[C@H](Cc3c[nH]c4ccccc34)NC(=O)[C@H](CSSC[C@H](NC(=O)[C@H](CC(C)C)NC(=O)[C@H](C)N)C(=O)N[C@@H](CC(N)=O)C(=O)N2)NC(=O)[C@H](CCC(N)=O)NC(=O)[C@H](Cc2c[nH]cn2)NC(=O)[C@@H]2CCCN2C(=O)[C@H]([C@@H](C)CC)NC1=O [Peptide 58, TPN-RQ(R7A/R8A)] (H-ALCNCNAAIIPHQCWKKCGKK-NH2; disulfide 3-14, 5-18)
Second: CC[C@H](C)[C@@H]1NC(=O)[C@H](C)NC(=O)[C@H](CCCNC(=N)N)NC(=O)[C@H](CC(N)=O)NC(=O)[C@@H]2CSSC[C@@H](C(=O)NCC(=O)N[C@@H](CCCCN)C(=O)N[C@@H](CCCCN)C(N)=O)NC(=O)[C@H](CCCCN)NC(=O)[C@H](CCCCN)NC(=O)[C@H](Cc3c[nH]c4ccccc34)NC(=O)[C@H](CSSC[C@H](NC(=O)[C@H](CC(C)C)NC(=O)[C@H](C)N)C(=O)N[C@@H](CC(N)=O)C(=O)N2)NC(=O)[C@H](CCC(N)=O)NC(=O)[C@H](Cc2c[nH]cn2)NC(=O)[C@@H]2CCCN2C(=O)[C@H]([C@@H](C)CC)NC1=O [Peptide 59, TPN-RQ(R8A)] (H-ALCNCNRAIIPHQCWKKCGKK-NH2; disulfide 3-14, 5-18)
The inhibition at 1 µM of the first is lower: less than 20% for the first, 60 to 80% for the second.

First: CC[C@H](C)[C@@H]1NC(=O)[C@H](C)NC(=O)[C@H](CCCNC(=N)N)NC(=O)[C@H](CCCNC(=N)N)NC(=O)[C@H](CC(N)=O)NC(=O)[C@@H]2CSSC[C@@H](C(=O)NCC(=O)N[C@@H](CCCCN)C(=O)N[C@@H](CCCCN)C(N)=O)NC(=O)[C@H](CCCCN)NC(=O)[C@H](CCCCN)NC(=O)[C@H](Cc3c[nH]c4ccccc34)NC(=O)[C@H](CSSC[C@H](NC(=O)[C@H](CC(C)C)NC(=O)[C@H](C)N)C(=O)N[C@@H](CC(N)=O)C(=O)N2)NC(=O)[C@H](CCC(N)=O)NC(=O)[C@H](Cc2c[nH]cn2)NC(=O)[C@@H]2CCCN2C1=O [Peptide 60, TPN-RQ(I9A)] (H-ALCNCNRRAIPHQCWKKCGKK-NH2; disulfide 3-14, 5-18)
Second: CC[C@H](C)[C@@H]1NC(=O)[C@H](CCCNC(=N)N)NC(=O)[C@H](CCCNC(=N)N)NC(=O)[C@H](CC(N)=O)NC(=O)[C@@H]2CSSC[C@@H](C(=O)NCC(=O)N[C@@H](CCCCN)C(=O)N[C@@H](CCCCN)C(N)=O)NC(=O)[C@H](CCCCN)NC(=O)[C@H](CCCCN)NC(=O)[C@H](Cc3c[nH]c4ccccc34)NC(=O)[C@H](CSSC[C@H](NC(=O)[C@H](CC(C)C)NC(=O)[C@H](C)N)C(=O)N[C@@H](CC(N)=O)C(=O)N2)NC(=O)[C@H](CCC(N)=O)NC(=O)[C@H](Cc2c[nH]cn2)NC(=O)[C@@H]2CCCN2C(=O)[C@H](C)NC1=O [Peptide 61, TPN-RQ(I10A)] (H-ALCNCNRRIAPHQCWKKCGKK-NH2; disulfide 3-14, 5-18)
The inhibition at 1 µM of the first is higher: 40 to 60% for the first, 20 to 40% for the second.

First: CC[C@H](C)[C@@H]1NC(=O)[C@H](CCCNC(=N)N)NC(=O)[C@H](CCCNC(=N)N)NC(=O)[C@H](CC(N)=O)NC(=O)[C@@H]2CSSC[C@@H](C(=O)NCC(=O)N[C@@H](CCCCN)C(=O)N[C@@H](CCCCN)C(N)=O)NC(=O)[C@H](CCCCN)NC(=O)[C@H](CCCCN)NC(=O)[C@H](Cc3c[nH]c4ccccc34)NC(=O)[C@H](CSSC[C@H](NC(=O)[C@H](CC(C)C)NC(=O)[C@H](C)N)C(=O)N[C@@H](CC(N)=O)C(=O)N2)NC(=O)[C@H](CCC(N)=O)NC(=O)[C@H](Cc2c[nH]cn2)NC(=O)[C@H](C)NC(=O)[C@H]([C@@H](C)CC)NC1=O [Peptide 62, TPN-RQ(P11A)] (H-ALCNCNRRIIAHQCWKKCGKK-NH2; disulfide 3-14, 5-18)
Second: CC[C@H](C)[C@@H]1NC(=O)[C@H](CCCNC(=N)N)NC(=O)[C@H](CCCNC(=N)N)NC(=O)[C@H](CC(N)=O)NC(=O)[C@@H]2CSSC[C@@H](C(=O)NCC(=O)N[C@@H](CCCCN)C(=O)N[C@@H](CCCCN)C(N)=O)NC(=O)[C@H](CCCCN)NC(=O)[C@H](CCCCN)NC(=O)[C@H](Cc3c[nH]c4ccccc34)NC(=O)[C@H](CSSC[C@H](NC(=O)[C@H](CC(C)C)NC(=O)[C@H](C)N)C(=O)N[C@@H](CC(N)=O)C(=O)N2)NC(=O)[C@H](C)NC(=O)[C@H](Cc2c[nH]cn2)NC(=O)[C@@H]2CCCN2C(=O)[C@H]([C@@H](C)CC)NC1=O [Peptide 64, TPN-RQ(Q13A)] (H-ALCNCNRRIIPHACWKKCGKK-NH2; disulfide 3-14, 5-18)
The inhibition at 1 µM of the first is higher: greater than 80% for the first, 20 to 40% for the second.

First: CC[C@H](C)[C@@H]1NC(=O)[C@H](CCCNC(=N)N)NC(=O)[C@H](CCCNC(=N)N)NC(=O)[C@H](CC(N)=O)NC(=O)[C@@H]2CSSC[C@@H](C(=O)NCC(=O)N[C@@H](CCCCN)C(=O)N[C@@H](CCCCN)C(N)=O)NC(=O)[C@H](CCCCN)NC(=O)[C@H](CCCCN)NC(=O)[C@H](Cc3c[nH]c4ccccc34)NC(=O)[C@H](CSSC[C@H](NC(=O)[C@H](CC(C)C)NC(=O)[C@H](C)N)C(=O)N[C@@H](CC(N)=O)C(=O)N2)NC(=O)[C@H](CCC(N)=O)NC(=O)[C@H](C)NC(=O)[C@@H]2CCCN2C(=O)[C@H]([C@@H](C)CC)NC1=O [Peptide 63, TPN-RQ(H12A)] (H-ALCNCNRRIIPAQCWKKCGKK-NH2; disulfide 3-14, 5-18)
Second: CC[C@H](C)[C@@H]1NC(=O)[C@H](CCCNC(=N)N)NC(=O)[C@H](CCCNC(=N)N)NC(=O)[C@H](CC(N)=O)NC(=O)[C@@H]2CSSC[C@@H](C(=O)NCC(=O)N[C@@H](CCCCN)C(=O)N[C@@H](CCCCN)C(N)=O)NC(=O)[C@H](CCCCN)NC(=O)[C@H](CCCCN)NC(=O)[C@H](C)NC(=O)[C@H](CSSC[C@H](NC(=O)[C@H](CC(C)C)NC(=O)[C@H](C)N)C(=O)N[C@@H](CC(N)=O)C(=O)N2)NC(=O)[C@H](CCC(N)=O)NC(=O)[C@H](Cc2c[nH]cn2)NC(=O)[C@@H]2CCCN2C(=O)[C@H]([C@@H](C)CC)NC1=O [Peptide 65, TPN-RQ(W15A)] (H-ALCNCNRRIIPHQCAKKCGKK-NH2; disulfide 3-14, 5-18)
The inhibition at 1 µM of the first is higher: 40 to 60% for the first, 20 to 40% for the second.

First: CC[C@H](C)[C@@H]1NC(=O)[C@H](CCCNC(=N)N)NC(=O)[C@H](CCCNC(=N)N)NC(=O)[C@H](CC(N)=O)NC(=O)[C@@H]2CSSC[C@@H](C(=O)NCC(=O)N[C@@H](CCCCN)C(=O)N[C@@H](CCCCN)C(N)=O)NC(=O)[C@H](C)NC(=O)[C@H](C)NC(=O)[C@H](Cc3c[nH]c4ccccc34)NC(=O)[C@H](CSSC[C@H](NC(=O)[C@H](CC(C)C)NC(=O)[C@H](C)N)C(=O)N[C@@H](CC(N)=O)C(=O)N2)NC(=O)[C@H](CCC(N)=O)NC(=O)[C@H](Cc2c[nH]cn2)NC(=O)[C@@H]2CCCN2C(=O)[C@H]([C@@H](C)CC)NC1=O [Peptide 66, TPN-RQ(K16A/K17A)] (H-ALCNCNRRIIPHQCWAACGKK-NH2; disulfide 3-14, 5-18)
Second: CC[C@H](C)[C@@H]1NC(=O)[C@H](CCCNC(=N)N)NC(=O)[C@H](CCCNC(=N)N)NC(=O)[C@H](CC(N)=O)NC(=O)[C@@H]2CSSC[C@@H](C(=O)N[C@@H](C)C(=O)N[C@@H](CCCCN)C(=O)N[C@@H](CCCCN)C(N)=O)NC(=O)[C@H](CCCCN)NC(=O)[C@H](CCCCN)NC(=O)[C@H](Cc3c[nH]c4ccccc34)NC(=O)[C@H](CSSC[C@H](NC(=O)[C@H](CC(C)C)NC(=O)[C@H](C)N)C(=O)N[C@@H](CC(N)=O)C(=O)N2)NC(=O)[C@H](CCC(N)=O)NC(=O)[C@H](Cc2c[nH]cn2)NC(=O)[C@@H]2CCCN2C(=O)[C@H]([C@@H](C)CC)NC1=O [Peptide 67, TPN-RQ(G19A)] (H-ALCNCNRRIIPHQCWKKCAKK-NH2; disulfide 3-14, 5-18)
The inhibition at 1 µM of the first is lower: 20 to 40% for the first, 60 to 80% for the second.
